According to ChEMBL document CHEMBL1201862, “PubChem BioAssay data set” (2004):
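Cultured in 96-well plates, cells were exposed to test compound for 48 hours across five concentrations. GI50 is the concentration that inhibits growth by half.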 Calls of active or inactive are those of the source. Rule as the data show it: active = GI50 up to about 1.1 µM and inactive = higher.

Assays:
Assay in all cases: DTP human tumour cell line panel, 48 h
[1] = test system: TK-10
[2] = test system: RPMI-8226
[3] = test system: A498
[4] = test system: M14
[5] = test system: IGROV-1
[6] = test system: COLO 205
[7] = test system: HOP-62
[8] = test system: SK-MEL-28
[9] = test system: MOLT-4
[10] = test system: SK-MEL-2
[11] = test system: MCF7
[12] = test system: MDA-MB-231
[13] = test system: ACHN
[14] = test system: NCI-H522
[15] = test system: SK-OV-3
[16] = test system: A549
[17] = test system: OVCAR-8
[18] = test system: LOX IMVI
[19] = test system: HL-60
[20] = test system: DLD-1

Structure (SMILES) | GI50 [1] | GI50 [2] | GI50 [3] | GI50 [4] | GI50 [5] | GI50 [6] | GI50 [7] | GI50 [8] | GI50 [9] | GI50 [10] | GI50 [11] | GI50 [12] | GI50 [13] | GI50 [14] | GI50 [15] | GI50 [16] | GI50 [17] | GI50 [18] | GI50 [19] | GI50 [20]
CN(C)c1ccc(/C=c2\c3ccccc3n3c2cc(-c2ccccc2)[n+]3C)cc1 | 0.624 µM (active) | 0.0172 µM (active) | 1.42 µM (inactive) | 0.157 µM (active) | 0.0689 µM (active) | 0.0143 µM (active) | 0.303 µM (active) | 0.365 µM (active) | 0.0914 µM (active) | 0.175 µM (active) | 0.124 µM (active) | 0.222 µM (active) | 0.368 µM (active) | 0.0193 µM (active) | 0.303 µM (active) | 0.201 µM (active) | 0.0726 µM (active) | 0.118 µM (active) | 0.0283 µM (active) | –
O=c1oc2ccc3ccccc3c2cc1-c1nc2ccccc2o1 | > 52.1 µM (inactive) | > 38.8 µM (inactive) | 25.9 µM (inactive) | 33.2 µM (inactive) | 12.7 µM (inactive) | 53.5 µM (inactive) | 18.6 µM (inactive) | 22.6 µM (inactive) | 35.2 µM (inactive) | 20.6 µM (inactive) | 1.26 µM (inactive) | 16.8 µM (inactive) | 13.9 µM (inactive) | 21.3 µM (inactive) | 25.6 µM (inactive) | 28.2 µM (inactive) | 23.2 µM (inactive) | 16.6 µM (inactive) | 40.6 µM (inactive) | –
COc1c2c(c(OC)c3c1c(=O)c1ccccc1n3C)OCO2 | > 100 µM (inactive) | 11.4 µM (inactive) | 53.3 µM (inactive) | 9.51 µM (inactive) | 7.87 µM (inactive) | 7.66 µM (inactive) | 25.2 µM (inactive) | 30.5 µM (inactive) | 7.85 µM (inactive) | > 19.9 µM (inactive) | 4.2 µM (inactive) | 19.3 µM (inactive) | 49.2 µM (inactive) | 2.23 µM (inactive) | 25.5 µM (inactive) | 44.5 µM (inactive) | 27.1 µM (inactive) | 5.48 µM (inactive) | 3.18 µM (inactive) | –
CCOC(=O)/C(C(=O)Nc1cccc(C(F)(F)F)c1)=C(/N)N1CCCC1 | > 100 µM (inactive) | > 100 µM (inactive) | 41.6 µM (inactive) | > 100 µM (inactive) | > 100 µM (inactive) | > 100 µM (inactive) | 44.6 µM (inactive) | > 100 µM (inactive) | > 100 µM (inactive) | > 100 µM (inactive) | 63 µM (inactive) | 42.4 µM (inactive) | > 100 µM (inactive) | > 100 µM (inactive) | 52.4 µM (inactive) | > 100 µM (inactive) | 38 µM (inactive) | > 100 µM (inactive) | > 100 µM (inactive) | –
CC(C)C1(C)N=C(C(F)(F)F)c2cc(C(=O)C(F)(F)F)c3ccccc3c2N1 (stereo not given) | 4.51 µM (inactive) | 3.53 µM (inactive) | 14.9 µM (inactive) | 4.99 µM (inactive) | 1.16 µM (inactive) | 4.14 µM (inactive) | 4.9 µM (inactive) | 5.22 µM (inactive) | 3.07 µM (inactive) | 2.51 µM (inactive) | 4.03 µM (inactive) | 2.73 µM (inactive) | 3.53 µM (inactive) | 2.3 µM (inactive) | 15 µM (inactive) | 5.43 µM (inactive) | 4.17 µM (inactive) | 2.45 µM (inactive) | 4.62 µM (inactive) | –
CN(CCNC(=O)c1cc(-c2ccccc2)nc2ccccc12)CCNC(=O)c1cc(-c2ccccc2)nc2ccccc12 | > 100 µM (inactive) | 4.99 µM (inactive) | 12.2 µM (inactive) | 2.17 µM (inactive) | 3.6 µM (inactive) | 2.22 µM (inactive) | 26.1 µM (inactive) | 2.19 µM (inactive) | 4.17 µM (inactive) | 4.41 µM (inactive) | 3.87 µM (inactive) | > 50.4 µM (inactive) | > 47 µM (inactive) | 14.3 µM (inactive) | > 100 µM (inactive) | > 100 µM (inactive) | > 28.1 µM (inactive) | 3.89 µM (inactive) | 4.7 µM (inactive) | –
c1ccc(/C(=N/Nc2ccccn2)c2cccnn2)cc1 | 98.6 µM (inactive) | 2.17 µM (inactive) | > 25.3 µM (inactive) | 1.45 µM (inactive) | 1.79 µM (inactive) | 0.741 µM (active) | 2.85 µM (inactive) | > 34.2 µM (inactive) | 0.632 µM (active) | 12.7 µM (inactive) | 3.43 µM (inactive) | 2.57 µM (inactive) | 0.998 µM (active) | 0.441 µM (active) | 2.58 µM (inactive) | 2.43 µM (inactive) | 1.87 µM (inactive) | 2.07 µM (inactive) | 3.61 µM (inactive) | –
Cc1[nH]nc2c1C(=O)C=C(N(CCO)c1ccccc1)C2=O | > 100 µM (inactive) | > 100 µM (inactive) | – | > 100 µM (inactive) | > 100 µM (inactive) | > 100 µM (inactive) | – | > 100 µM (inactive) | > 100 µM (inactive) | – | – | – | – | > 100 µM (inactive) | > 100 µM (inactive) | > 100 µM (inactive) | > 100 µM (inactive) | 4.05 µM (inactive) | > 100 µM (inactive) | > 100 µM (inactive)
O=C(N/N=C\c1cccc2ccccc12)Nc1ccc([N+](=O)[O-])cc1 | 4.94 µM (inactive) | > 19.7 µM (inactive) | 2.66 µM (inactive) | 28.1 µM (inactive) | 18.4 µM (inactive) | 17.1 µM (inactive) | 17.9 µM (inactive) | 27.7 µM (inactive) | 20.8 µM (inactive) | 20 µM (inactive) | 9.51 µM (inactive) | 30.7 µM (inactive) | 11.6 µM (inactive) | 5.66 µM (inactive) | 24.6 µM (inactive) | 9.71 µM (inactive) | 7.64 µM (inactive) | 21.6 µM (inactive) | > 40.6 µM (inactive) | –
O=C1N/C(=N/N=C/c2cccs2)N/C1=C\c1ccco1 | > 100 µM (inactive) | 23.7 µM (inactive) | 17.1 µM (inactive) | 8.57 µM (inactive) | 26.1 µM (inactive) | 35.5 µM (inactive) | > 100 µM (inactive) | 76.9 µM (inactive) | > 100 µM (inactive) | 7.29 µM (inactive) | 30.3 µM (inactive) | > 100 µM (inactive) | > 100 µM (inactive) | 7.98 µM (inactive) | 21.9 µM (inactive) | 33.7 µM (inactive) | 37 µM (inactive) | 21.6 µM (inactive) | 31.4 µM (inactive) | –
c1ccc2cc3c(NC4=NCCO4)cccc3cc2c1 | 86.9 µM (inactive) | 39 µM (inactive) | 67.6 µM (inactive) | 34.3 µM (inactive) | 60.8 µM (inactive) | 35.9 µM (inactive) | > 100 µM (inactive) | > 100 µM (inactive) | 31.1 µM (inactive) | 46.1 µM (inactive) | 68.7 µM (inactive) | 25.2 µM (inactive) | 68.1 µM (inactive) | > 100 µM (inactive) | > 100 µM (inactive) | > 100 µM (inactive) | 48.5 µM (inactive) | 29.8 µM (inactive) | 25.9 µM (inactive) | –
Cc1cn(Cc2cccc(C3=NCCCN3)c2)c(=O)n(Cc2cccc(C3=NCCCN3)c2)c1=O | > 100 µM (inactive) | > 100 µM (inactive) | > 100 µM (inactive) | > 100 µM (inactive) | > 100 µM (inactive) | > 100 µM (inactive) | > 100 µM (inactive) | > 100 µM (inactive) | > 100 µM (inactive) | > 100 µM (inactive) | > 100 µM (inactive) | > 100 µM (inactive) | > 100 µM (inactive) | > 100 µM (inactive) | > 100 µM (inactive) | > 100 µM (inactive) | > 100 µM (inactive) | > 100 µM (inactive) | > 100 µM (inactive) | –
COc1cc2oc3c(c(=O)c2c(O)c1/C=C/C(C)C)CCC(C)(C)Oc1cc(O)ccc1-3 | 13.8 µM (inactive) | 20 µM (inactive) | 19.1 µM (inactive) | 10.8 µM (inactive) | 17.7 µM (inactive) | 16.4 µM (inactive) | 15.4 µM (inactive) | 14.8 µM (inactive) | 13 µM (inactive) | 16.6 µM (inactive) | 13.3 µM (inactive) | 16.6 µM (inactive) | 14.1 µM (inactive) | 18.1 µM (inactive) | 16.7 µM (inactive) | 12 µM (inactive) | 15.5 µM (inactive) | 9.14 µM (inactive) | 13.1 µM (inactive) | –
NC1CC(=O)c2csc(Cl)c21 (stereo not given) | 11.5 µM (inactive) | 0.234 µM (active) | 17.1 µM (inactive) | 8.99 µM (inactive) | 15.7 µM (inactive) | 5.32 µM (inactive) | 14.1 µM (inactive) | 17.1 µM (inactive) | 1.48 µM (inactive) | 12.9 µM (inactive) | 17.5 µM (inactive) | 9.46 µM (inactive) | 5.33 µM (inactive) | 1.72 µM (inactive) | 17.3 µM (inactive) | 17.9 µM (inactive) | 6.61 µM (inactive) | 4 µM (inactive) | 2.72 µM (inactive) | –
CC[C@H](C)C(=O)O[C@H]1CCC=C2C=C[C@H](C)[C@H](CC[C@@H]3C[C@@H](O)CC(=O)O3)[C@H]21 [MEVASTATIN] | 36.6 µM (inactive) | 20 µM (inactive) | 5.43 µM (inactive) | 10 µM (inactive) | 4.43 µM (inactive) | 12.9 µM (inactive) | > 100 µM (inactive) | 60.7 µM (inactive) | > 47.8 µM (inactive) | 5.77 µM (inactive) | 20.3 µM (inactive) | 3.85 µM (inactive) | 3.88 µM (inactive) | 2.85 µM (inactive) | 44.3 µM (inactive) | 27.4 µM (inactive) | 8.26 µM (inactive) | 1.97 µM (inactive) | 46.6 µM (inactive) | –
